Measurements: patent publication US9927437B2, “Treating neurodegenerative disease” (THE BRIGHAM AND WOMEN'S HOSPITAL, INC., priority 2013, dated 2018)

What was measured:
primary mouse microglia = assay: Response of primary microglia to LPS/IFNγ (nCounter); type: cell-based; conditions: absence of astrocytes, LPS/IFNγ 6 h
Excerpt: FIGS. 5a-m. B4GALT6 in astrocytes regulates the activation of microglia and CNS-infiltrating monocytes. (a) Heatmap depicting mRNA expression, as determined by nCounter Nanostring analysis, in microglia from naïve or EAE NOD mice treated with PDMP or vehicle. Representative data of three independent experiments. Statistical analysis by Student's t-test. (b) qPCR analysis of ccl5, il1b, opn, nos2, cd40, and H2-Aa gene expression relative to Gapdh. (c, d) Mean normalized expression of genes associated with M1- or M2-phenotype in microglia (Table 3) (c) and Ly6C^high monocytes (d). Statistical analysis by Student's t-test. (e-h) primary microglia were pre-treated with PDMP, LacCer, or vehicle, followed by activation with LPS/IFNγ for 6 h or left un-treated (control) as in (FIG. 3a). mRNA expression was determined by nCounter Nanostring analysis (e, g), and microglial viability was determined (f, h). Representative data of five independent experiments. […] RNA was harvested from microglia treated in the absence [MG (pure)] or presence [MG (mixed)] of astrocytes and gene expression was analyzed by qPCR for the expression ccl2, ccl5 and nos2 relative to gapdh. […] Microglia were isolated as in (i), and microglial-nos2 expression was determined by qRT relative to gapdh and presented as in (i). […]

IRF-1 = IRF-1 translocation to the nucleus in astrocytes (western blot); type: cell-based, mouse; conditions: primary astrocytes, PDMP 25 μM or LacCer 10 μM, LPS/IFNγ 45 min
Ly6C^high monocytes = assay: Viability assay, monocytes; type: cell-based, mouse; conditions: 1 h pre-treatment, 3 h

Row | Molecule | response of cultured primary mouse microglia to LPS/IFNγ (primary mouse microglia) | translocation of IRF-1 to the nucleus (IRF-1) | viability of purified Ly6C^high monocytes (Ly6C^high monocytes)
1 | CCCCCCCCCC(=O)N[C@H](CN1CCOCC1)[C@H](O)c1ccccc1 [PDMP, D-threo-1-phenyl-2-decanoylamino-3-morpholino-1-propanol] | neither the viability nor the response of cultured primary mouse microglia to LPS/IFNγ was affected | interfered with this process | did not affect
2 | lactosylceramide [LacCer] | neither the viability nor the response of cultured primary mouse microglia to LPS/IFNγ was affected | enhanced the translocation of IRF-1 to the nucleus | did not affect
